The text below walks through data of paper PMC10650415, “Synthesis of Tetracyclic Spirooxindolepyrrolidine-Engrafted Hydantoin Scaffolds: Crystallographic Analysis, Molecular Docking Studies and Evaluation of Their Antimicrobial, Anti-Inflammatory and Analgesic Activities” (Molecules, 2023).

Molecules are shown by their SMILES. Converted amounts (≈) assume the structure as drawn.

One data set concerns M. luteus NCIMB 8166. As to the kind of experiment: MBC by the agar method. Particulars: Micrococcus luteus, NCIMB8166.
In data set [1] the target is T1, Lipoxygenase-5 (LOX-5) enzyme (Homo sapiens, UniProt P09917).
T1 construct: purchased sigma 437996-500U
T1 sequence (P09917 1-674): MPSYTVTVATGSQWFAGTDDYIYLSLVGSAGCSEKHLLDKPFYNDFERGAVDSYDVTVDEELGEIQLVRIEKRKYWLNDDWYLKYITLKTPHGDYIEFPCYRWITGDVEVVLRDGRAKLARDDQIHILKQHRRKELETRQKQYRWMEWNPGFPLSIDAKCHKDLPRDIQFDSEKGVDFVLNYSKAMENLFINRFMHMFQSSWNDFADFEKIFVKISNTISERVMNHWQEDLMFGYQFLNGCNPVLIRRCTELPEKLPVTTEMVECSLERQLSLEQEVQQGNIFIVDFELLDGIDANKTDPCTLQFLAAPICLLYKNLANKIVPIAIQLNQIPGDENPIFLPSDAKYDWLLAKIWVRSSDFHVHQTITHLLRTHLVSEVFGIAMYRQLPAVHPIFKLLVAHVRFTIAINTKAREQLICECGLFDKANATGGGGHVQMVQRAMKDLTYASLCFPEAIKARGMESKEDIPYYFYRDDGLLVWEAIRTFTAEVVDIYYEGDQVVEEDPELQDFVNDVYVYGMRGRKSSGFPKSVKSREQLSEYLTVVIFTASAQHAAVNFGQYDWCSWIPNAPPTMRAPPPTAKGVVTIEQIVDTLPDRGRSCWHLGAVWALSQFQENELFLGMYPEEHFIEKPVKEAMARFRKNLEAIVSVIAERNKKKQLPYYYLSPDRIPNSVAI
The experiment in a line: In vitro lipoxygenase (LOX-5) inhibitory assay. Particulars: mean ± SEM, n = 5; read-out: IC50 (LOX-5 inhibition) (converted). It is filed as biochemical. How it is done: Lipoxygenases are a family of monomeric proteins that catalyze oxidation of polyunsaturated fatty acids (PUFA) (linoleic, linolenic and arachidonic acid) to produce hydroperoxides. Fractions’ anti-LOX activity was also measured as inhibition of linoleic acid’s peroxidation to hydroperoxylinoleic acid.
To evaluate the prospects of the newly synthesized spirooxindoles as promising drug candidates, we first studied their inhibitory potency against the Lipoxygenase-5 (LOX-5) enzyme.

The next data set concerns C. albicans ATCC 90028. As to the kind of experiment: MFC by the agar method. Particulars: for MFC: Candida albicans, ATCC90028; for MFC/MIC ratio: C. Albicans, ≤ 4 fungicidal, >4 fungistatic.
A further data set has as its system S. aureus ATCC 25923. As to the kind of experiment: MBC by the agar method. Particulars: Staphylococcus aureus, ATCC25923.
A further data set deals with E. coli ATCC 25922. The experiment in a line: MBC by the agar method.
In the next data set the test system is C. kreusei ATCC 6258. The experiment in a line: MFC by the agar method. Particulars: for MFC: Pichia kudriavzevii, ATCC6258; for MFC/MIC ratio: C. Krusei, ≤ 4 fungicidal, >4 fungistatic.
A further data set concerns P. aeruginosa ATCC 27950. The experiment in a line: MBC by the agar method. Particulars: Pseudomonas aeruginosa, ATCC27950.
Data set [2] deals with λ-carrageenan-induced paw edema. The experiment in a line: Carrageenan-induced paw edema test. It is filed as in vivo. Particulars: rats; for Increase in Paw Volume, 0 h / Increase in Paw Volume, 1 h / Increase in Paw Volume, 2 h / Increase in Paw Volume, 4 h: 10 mg/kg orally 1 h before carrageenan; for % Inhibition of Edema, 1 h / % Inhibition of Edema, 2 h / % Inhibition of Edema, 4 h: 10 mg/kg orally. The source says: Diclofenac sodium was used as a reference drug.

Data set [3] deals with acetic acid-induced writhing. As to the kind of experiment: Acetic acid-induced writhing test (analgesic). Particulars: 100 mg/kg; for Number of Writhing: mean ± SE.
Description: Any writhing was considered a positive response. The efficacy and potency of analgesic activity of the test compounds is inferred from the reduction in the frequency of writhings [53].
Analgesic activity in rats was determined by the protocol described by Tiss et al. [82].
Data set [4] can be described thus: Acute toxicity (liver and kidney indices). It is filed as in vivo. Particulars: rats.
The mark [5] stands for this setting: Escherichia coli, ATCC25922, E. coli ATCC 25922.

Description for C. albicans ATCC 90028: (§1) To further determine the killing efficiency of the synthesized spiropyrrolidines against selected strains, the minimum bactericidal concentration (MBC) and the minimum fungicidal concentration (MFC) were assessed by the agar method [54].
Description for C. kreusei ATCC 6258: as §1
Description for E. coli ATCC 25922: as §1
Description for M. luteus NCIMB 8166: as §1
Description for P. aeruginosa ATCC 27950: as §1
Description for S. aureus ATCC 25923: as §1

In turn, `COc1ccc([C@H]2[C@H](c3ccccc3)N[C@@]3(C(=O)Nc4ccccc43)[C@@]23NC(=O)NC3=O)cc1` (racemic) [4d] displayed a melting point of 187 °C. The MBC in the data set with M. luteus NCIMB 8166 came out at 750 µg/mL (≈ 1650 µM). Also, the IC50 in [1] was 5.15 mM. The molecule further displayed an MFC in the data set on C. albicans ATCC 90028 greater than 1500 µg/mL. For the same molecule, the MBC against S. aureus ATCC 25923 was determined as 93.8 µg/mL (≈ 206 µM). For the same molecule, the MBC against E. coli ATCC 25922 (E. coli ATCC 25922) worked out at 375 µg/mL (≈ 825 µM). In addition, the MBC against E. coli ATCC 25922 (setting [5]) is 188 to 374 µg/mL (≈ 413 to 823 µM). Moreover, the MFC in the data set with C. kreusei ATCC 6258 was 93.8 µg/mL (≈ 206 µM). In the data set with P. aeruginosa ATCC 27950, this molecule yielded an MBC of 188 µg/mL (≈ 413 µM).

The molecule `O=C1NC(=O)[C@]2(N1)[C@@H](c1ccc(Cl)cc1)[C@H](c1ccccc1)N[C@@]21C(=O)N(Cc2ccccc2)c2ccccc21` (racemic) [4f] registered a melting point of 195 °C. The minimal bactericidal concentration (MBC) in the data set with M. luteus NCIMB 8166 came to 750 µg/mL (≈ 1370 µM). Besides, the IC50 in [1] is 8.96 mM. The MFC in the data set with C. albicans ATCC 90028 was 93.8 µg/mL (≈ 171 µM). Further, in the data set with S. aureus ATCC 25923, the MBC was 188 µg/mL (≈ 342 µM). This molecule came in with an MBC in the data set on E. coli ATCC 25922 (E. coli ATCC 25922) of 375 µg/mL (≈ 683 µM). The molecule further came in with an MBC against E. coli ATCC 25922 (setting [5]) of 188 to 374 µg/mL (≈ 342 to 681 µM). The molecule further had an MFC against C. kreusei ATCC 6258 of 93.8 µg/mL (≈ 171 µM). Besides, the MBC against P. aeruginosa ATCC 27950 was 375 µg/mL (≈ 683 µM).

In turn, `O=C1NC(=O)[C@]2(N1)[C@@H](c1ccc(F)cc1)[C@H](c1ccccc1)N[C@@]21C(=O)Nc2ccccc21` (racemic) [4i] registered a minimal bactericidal concentration (MBC) against M. luteus NCIMB 8166 greater than 1500 µg/mL. Moreover, the IC50 in data set [1] is 2.28 mM. In the data set with C. albicans ATCC 90028, the MFC/MIC ratio is on record as no more than 4 and the MFC amounted to 93.8 µg/mL (≈ 212 µM). In data set [2], the “Increase in Paw Volume, 0 h” value is given as 0.43 ± 0.14; the “Increase in Paw Volume, 1 h” value amounted to 0.98 ± 0.11; the “Increase in Paw Volume, 2 h” value is reported as 1.13 ± 0.21; the “Increase in Paw Volume, 4 h” value is 1.51 ± 0.13. In addition, in [2], the “% Inhibition of Edema, 1 h” value amounted to 27% and the “% Inhibition of Edema, 2 h” value was 25%. Also, in [2] (10 mg/kg), the “% Inhibition of Edema, 4 h” value is 33%. This molecule showed an MBC with S. aureus ATCC 25923 of 750 µg/mL (≈ 1700 µM). Further, the MBC against E. coli ATCC 25922 (setting [5]) stood at 750 µg/mL (≈ 1700 µM). Also, in data set [3], the “% Inhibition (writhing)” value came to 42% and the “Number of Writhing” value was found to be 36 ± 5. In the data set with C. kreusei ATCC 6258, the MFC/MIC ratio is no more than 4 and the MFC amounted to 188 µg/mL (≈ 424 µM). In data set [4] (dose of 16.25 mg/kg), this molecule came in with an ALT of 21.1 ± 1.5 U/L, an AST of 98.3 ± 13 U/L, an Albumin of 8.7 ± 1.66 g/L and a Creat of 3.31 ± 0.9 µmol/L. Moreover, the Urea in [4] (dose of 16.25 mg/kg) is 2.83 ± 0.7 mmol/L. Besides, the “Acute toxicity (result in words)” value in data set [4] (up to a dose of 16.25 mg/kg) is recorded as “did not cause any toxicity”. In the data set on P. aeruginosa ATCC 27950, this molecule yielded an MBC of 188 µg/mL (≈ 424 µM).

`O=C1NC(=O)[C@]2(N1)[C@@H](c1ccc(F)cc1)[C@H](c1ccccc1)N[C@@]21C(=O)Nc2ccc(Cl)cc21` (racemic) [4j] gave a melting point of 208 °C. Further, the MBC with M. luteus NCIMB 8166 came out at 750 µg/mL (≈ 1570 µM). The IC50 in [1] was 4.03 mM. The molecule further came in with an MFC against C. albicans ATCC 90028 of 93.8 µg/mL (≈ 197 µM). In the data set with S. aureus ATCC 25923, this molecule displayed an MBC of 93.8 µg/mL (≈ 197 µM). In the data set with E. coli ATCC 25922 (setting [5]), this molecule registered an MBC of 188 µg/mL (≈ 393 µM). For the same molecule, in the data set on C. kreusei ATCC 6258, the MFC stood at 188 µg/mL (≈ 393 µM). Moreover, the MBC in the data set with P. aeruginosa ATCC 27950 was found to be 93.8 µg/mL (≈ 197 µM).

Take `O=C1NC(=O)[C@]2(N1)[C@@H](c1ccc(F)cc1)[C@H](c1ccccc1)N[C@@]21C(=O)Nc2ccc(Br)cc21` (racemic) [4k]: the melting point was found to be 223 °C. In the data set with M. luteus NCIMB 8166, this molecule displayed an MBC greater than 1500 µg/mL. The IC50 in [1] was 2.97 mM. Moreover, in the data set with C. albicans ATCC 90028, the MFC/MIC ratio was no more than 4 and the MFC turned out to be 188 µg/mL (≈ 360 µM). In the data set on S. aureus ATCC 25923, the MBC is 188 µg/mL (≈ 360 µM). In the data set with E. coli ATCC 25922 (setting [5]), this molecule returned an MBC of 188 µg/mL (≈ 360 µM). Also, in the data set with C. kreusei ATCC 6258, the MFC/MIC ratio was no more than 4 and the MFC turned out to be 188 µg/mL (≈ 360 µM). The MBC in the data set on P. aeruginosa ATCC 27950 was determined as 188 µg/mL (≈ 360 µM).

Take `O=C(O)Cc1ccccc1Nc1c(Cl)cccc1Cl` [Diclofenac sodium, reference compound]: in [2], the “Increase in Paw Volume, 0 h” value turned out to be 0.41 ± 0.11; the “Increase in Paw Volume, 1 h” value amounted to 0.59 ± 0.13; the “Increase in Paw Volume, 2 h” value came to 0.83 ± 0.19; the “Increase in Paw Volume, 4 h” value is 1.21 ± 0.39. For the same molecule, in data set [2], the “% Inhibition of Edema, 1 h” value is recorded as 30%; the “% Inhibition of Edema, 2 h” value stood at 46%; the “% Inhibition of Edema, 4 h” value was 46%. In addition, in data set [3], the “% Inhibition (writhing)” value amounted to 63% and the “Number of Writhing” value came to 23 ± 4. Also, the “Number of Writhing” value in data set [3] (listed as diclofenac sodium) stood at 23.
